The record followed here is patent US11571485B2, “Peptides and antibodies for detecting changes in alzheimer's disease brain and methods of use thereof” (Sanford Burnham Prebys Medical Discovery Institute, priority 2016, dated 2023).

Assay [1] has as its system P13 model of angiogenic glioblastoma. As to the kind of experiment: In vivo homing in P13 glioblastoma model. The arrangement: species or system mouse. The following applies: systemically injected. The protocol: (§1) All animal experiments were conducted under an approved protocol of the Institutional Animal Care and Use Committee of Sanford Burnham Prebys Medical Discovery Institute. The following transgenic mouse models were used for peptide homing studies—hAPP-J20 ([…], Nature genetics 1, 345-347 (1992)), Tg2576 (Jacobsen et al., Proc Natl Acad Sci USA 103, 5161-5166 (2006)), and mTHY-1-α-synuclein model (Chesselet et al., Neurotherapeutics 9, 297-314 (2012)). The P13 glioblastoma model is a patient-derived orthotopic xenograft model (Bougnaud et al., Oncotarget, (2016)). Spheroids were cultured as described previously (Bjerkvig et al., J Neurosurg 72, 463-475 (1990)). After two weeks in culture, spheroids (volume 2.5 μl) were stereotactically implanted into the brains of nude mice. Mice were used approximately 6 weeks after tumors were induced, when mice started presenting neurological symptoms. The acute brain injury model was setup as previously described (Mann et al., Nature communications 7, 11980 (2016)). Briefly, 8 to 10 week-old male BL6 mice were anaesthetized with 4% isoflurane in 70% N2O and 30% O2, and a 5-mm craniotomy was performed using a portable drill and a trephine over the right parietotemporal cortex using a stereotactic frame. […]

The subject of a further assay is AD hippocampus. Put plainly: Homing of intravenously injected individual peptide-displaying phages. In kind it is in vivo, mouse. The following applies: intravenously injected phage displaying the peptide. The text has this:
FIG. 1B relates to phage titration showing that about 5 times more phage were recovered from the AD hippocampus than from the normal control. In the sequencing, phages displaying the peptides code named CASP (SEQ ID NO: 3; CASPRLSKC), CES (SEQ ID NO: 11, CESPLLSEC), and DAG (SEQ ID NO: 102, CDAGRKQKC) dominated. Hippocampus from age-matched normal wild-type mouse brain was used as a control.

In assay [2] the test system is mTHY-1/α-synuclein overexpressing mouse model of Parkinson's disease. As to the kind of experiment: In vivo homing in Parkinson's disease mouse model. The following applies: systemically injected. The method, then: as §1
The test system of assay [3] is hippocampus of hAPP-J20 AD and wild-type mice. Put plainly: In vivo CX7C T7 phage library screen, sequencing of phage recovered from hippocampus. The conditions noted are these: 9-month AD mouse vs normal mouse hippocampus. The arrangement: species or system mouse. The method, then:
In vivo phage screening was conducted using a T7 phage library expressing random peptides with the composition of CXnC (C=cysteine; X=any amino acid; n=7). The mouse model used for this screening is the hAPP-J20 that expresses amyloid precursor protein (APP) with both the Swedish and Indiana mutations (Murrell et al., Science 254, 97-99. (1991); Mullan et al., Nat. Genet. 1, 345-347. (1992)). Peptides homing to the hippocampus of these mice was the focus because the hippocampal region is where the AB-related lesions and damage are most prevalent early on in the disease.
A CX7C phage library was intravenously injected into 9 month-old AD and wild-type (WT) littermate mice, and allowed to circulate for 30 min, after which mice were perfused with saline, brains were collected, and the hippocampal region was dissected and subjected to phage titration and high throughput sequencing of the phage inserts. A surprise result was that the number of phage recovered from the AD hippocampus samples was much higher than the number recovered from a similar screen on normal littermates of the AD mice (FIG. 1A). […] BBB leakage has also been reported in AD patients.
Parallel phage library screens were performed on a normal mouse and a 9-month old AD transgenic mouse (J20 hAPP tg mouse line, which expresses transgenic amyloid precursor protein with two disease-related mutations). The library was intravenously injected into anesthetized mice and the hippocampal area of the brain was collected 30 min after intravenous injection of the library, phage was isolated from the tissue samples and subjected to high throughput sequencing of the peptide-encoding inserts in the phage DNA. Table 1 list most abundantly represented peptide from the two kinds of brains, and all peptides with significant representation in the AD brain and absent or nearly absent in the normal brain are listed in Table 2. Two peptides, CASPRLSKC (SEQ ID NO: 3) and CESPLLSEC (SEQ ID NO: 11), from among the highest scoring ones were subjected to detailed studies as described below.
hAPP-J20 mice were intravenously injected with 1e10 pfu of a CX7C (wherein X is any amino acid) naïve phage library, in 100 μL of PBS. The library was allowed to circulate for 30 minutes, after which mice were anesthetized with 2.5% avertin and perfused with PBS intracardially. The brain was removed and the hippocampus was extracted and homogenized in LB-NP 40 (1%) and phage was processed as described (Teesalu et al., Methods Enzymol 503, 35-56 (2012)). The phages in the lysate were rescued by amplification in E. coli and peptide-encoding portion of the phage genome was sequenced using Ion Torrent high throughput sequencing.

Another assay has as its target albumin (BSA) (Bos taurus, UniProt P02769). As to the kind of experiment: ELISA binding to control protein.

Chain of albumin (BSA) (P02769 25-607): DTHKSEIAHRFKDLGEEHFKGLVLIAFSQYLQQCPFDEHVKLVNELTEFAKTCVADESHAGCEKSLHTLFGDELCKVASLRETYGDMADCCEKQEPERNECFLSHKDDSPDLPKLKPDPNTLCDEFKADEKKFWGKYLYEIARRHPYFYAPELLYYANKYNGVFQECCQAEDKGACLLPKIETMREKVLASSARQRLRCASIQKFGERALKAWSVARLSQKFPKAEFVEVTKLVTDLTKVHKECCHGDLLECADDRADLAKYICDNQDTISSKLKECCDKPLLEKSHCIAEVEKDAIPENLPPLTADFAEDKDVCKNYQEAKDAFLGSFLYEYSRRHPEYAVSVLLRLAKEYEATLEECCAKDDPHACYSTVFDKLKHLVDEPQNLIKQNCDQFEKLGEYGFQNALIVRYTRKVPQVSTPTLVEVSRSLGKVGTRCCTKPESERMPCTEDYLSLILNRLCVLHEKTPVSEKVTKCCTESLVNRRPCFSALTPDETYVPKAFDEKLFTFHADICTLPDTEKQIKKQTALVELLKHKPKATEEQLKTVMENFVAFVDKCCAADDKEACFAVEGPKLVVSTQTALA

For the sequence CDAGRKQKC, the Tumor homing result in assay [1] is listed as “Strong tumor homing”. In the assay with AD hippocampus, the “Phage accumulation in normal brain” value is “no accumulation in normal brain” and the “Phage homing to AD hippocampus” value was “home to AD hippocampus with high specificity”. The “Accumulation in Parkinson's model brain” value in assay [2] was “accumulated in GFAP-positive astrocytes”. In addition, in assay [3], the “Representation in sequenced phage pools, AD versus normal brain” value was “dominated”. The “Binding to control protein (BSA)” value with albumin (BSA) is “only minimal binding to a control protein (BSA)”.
